According to ChEMBL document CHEMBL2375306, “Antimicrobial peptides containing unnatural amino acid exhibit potent bactericidal activity against ESKAPE pathogens” (Bioorg Med Chem, 2013):
Converted amounts (≈) assume the structure as drawn. Square brackets hold non-standard residues; d marks the D form. Peptide text beside a SMILES is read from it. ξ: configuration not given here. Pro(3ξ,4ξ-(CH2)4) = O=C(O)[C@H]1NCC2CCCCC21; Tic = O=C(O)[C@@H]1Cc2ccccc2CN1; Orn = NCCC[C@H](N)C(=O)O; Dab = NCC[C@H](N)C(=O)O; Dap = NC[C@H](N)C(=O)O

Legend:
NHDF [1] = test: Cytotoxicity against NHDF at 50 ug/ml after 6 hrs by MTT assay; type: cell-based; conditions: human
Klebsiella pneumoniae = test: Antibacterial activity against Klebsiella pneumoniae BAMS clinical isolate 07-18 after 24 hrs by broth microdilution method; type: functional; conditions: BAMS clinical isolate 07-18, 24 h
Klebsiella aerogenes = test: Antibacterial activity against Enterobacter aerogenes after 24 hrs by broth microdilution method; type: functional
NHDF [2] = test: Cytotoxicity against NHDF at 50 ug/ml after 6 hrs by LDH assay; type: cell-based; conditions: human
NHDF [3] = test: Cytotoxicity against NHDF at >50 ug/ml after 6 hrs by MTT assay; type: cell-based; conditions: human
NHDF [4] = test: Cytotoxicity against NHDF at >50 ug/ml after 6 hrs by LDH assay; type: cell-based; conditions: human
Pseudomonas aeruginosa = test: Antibacterial activity against Pseudomonas aeruginosa PAO1 after 24 hrs by broth microdilution method; type: functional; conditions: PAO1, 24 h
Staphylococcus aureus [5] = test: Antibacterial activity against community-associated methicillin-resistant Staphylococcus aureus USA300 after 24 hrs by broth microdilution method; type: functional; conditions: USA300, 24 h
Enterococcus faecium = test: Antibacterial activity against Enterococcus faecium MMC4 after 24 hrs by broth microdilution method; type: functional; conditions: MMC4, 24 h
Staphylococcus aureus [6] = test: Antibacterial activity against methicillin-sensitive Staphylococcus aureus UAMS-1 after 24 hrs by broth microdilution method; type: functional; conditions: UAMS-1, 24 h
Acinetobacter baumannii = test: Antibacterial activity against Acinetobacter baumannii WRAIR clinical isolate 13 after 24 hrs by broth microdilution method; type: functional; conditions: WRAIR clinical isolate 13, 24 h

MIC (Klebsiella pneumoniae) | MIC (Klebsiella aerogenes) | MIC (Pseudomonas aeruginosa) | MIC (Enterococcus faecium) | MIC (Staphylococcus aureus [6]) | MIC (Acinetobacter baumannii) | SMILES | Activity (NHDF [1]) | MBC (Klebsiella pneumoniae) | MBC (Klebsiella aerogenes) | Activity (NHDF [2]) | Activity (NHDF [3]) | Activity (NHDF [4]) | MBC (Pseudomonas aeruginosa) | MIC (Staphylococcus aureus [5]) | MBC (Enterococcus faecium) | MBC (Staphylococcus aureus [6]) | MBC (Acinetobacter baumannii)
50 µg/mL (≈ 13.9 µM) | 50 µg/mL (≈ 13.9 µM) | 50 µg/mL (≈ 13.9 µM) | 6.25 µg/mL (≈ 1.74 µM) | 12.5 µg/mL (≈ 3.47 µM) | 12.5 µg/mL (≈ 3.47 µM) | CC(C)C[C@H](NC(=O)[C@@H](N)CCCCN)C(=O)N1Cc2ccccc2C[C@H]1C(=O)N1CC2CCCCC2[C@H]1C(=O)N[C@@H](CCCCN)C(=O)NCC(=O)N1Cc2ccccc2C[C@H]1C(=O)N1CC2CCCCC2[C@H]1C(=O)N[C@@H](Cc1ccccc1)C(=O)NCC(=O)N1Cc2ccccc2C[C@H]1C(=O)N1CC2CCCCC2[C@H]1C(=O)N[C@@H](CCCCN)C(=O)NCC(=O)N1Cc2ccccc2C[C@H]1C(=O)N1CC2CCCCC2[C@H]1C(=O)N[C@@H](Cc1ccccc1)C(=O)NCC(=O)N1Cc2ccccc2C[C@H]1C(=O)N1CC2CCCCC2[C@H]1C(=O)N[C@@H](CCCCN)C(=O)NCC(=O)N1Cc2ccccc2C[C@H]1C(=O)N1CC2CCCCC2[C@H]1C(=O)N[C@@H](CCCCN)C(=O)N[C@@H](CCCCN)C(=O)N[C@@H](CCCCN)C(=O)N[C@@H](CCCCN)C(N)=O (some centres not stated) (H-KL[Tic][Pro(3ξ,4ξ-(CH2)4)]KG[Tic][Pro(3ξ,4ξ-(CH2)4)]FG[Tic][Pro(3ξ,4ξ-(CH2)4)]KG[Tic][Pro(3ξ,4ξ-(CH2)4)]FG[Tic][Pro(3ξ,4ξ-(CH2)4)]KG[Tic][Pro(3ξ,4ξ-(CH2)4)]KKKK-NH2) | Non-toxic | 50 µg/mL (≈ 13.9 µM) | 50 µg/mL (≈ 13.9 µM) | Non-toxic | Toxic | Toxic | 50 µg/mL (≈ 13.9 µM) | – | 25 µg/mL (≈ 6.95 µM) | 50 µg/mL (≈ 13.9 µM) | 25 µg/mL (≈ 6.95 µM)
100 µg/mL (≈ 33.6 µM) | 100 µg/mL (≈ 33.6 µM) | 50 µg/mL (≈ 16.8 µM) | 12.5 µg/mL (≈ 4.2 µM) | 50 µg/mL (≈ 16.8 µM) | 12.5 µg/mL (≈ 4.2 µM) | CC(C)C[C@H](NC(=O)[C@@H](N)CN)C(=O)N1Cc2ccccc2C[C@H]1C(=O)N1CC2CCCCC2[C@H]1C(=O)N[C@@H](CN)C(=O)N1Cc2ccccc2C[C@H]1C(=O)N1CC2CCCCC2[C@H]1C(=O)N[C@@H](Cc1ccccc1)C(=O)N1Cc2ccccc2C[C@H]1C(=O)N1CC2CCCCC2[C@H]1C(=O)N[C@@H](CN)C(=O)N1Cc2ccccc2C[C@H]1C(=O)N1CC2CCCCC2[C@H]1C(=O)N[C@@H](Cc1ccccc1)C(=O)N1Cc2ccccc2C[C@H]1C(=O)N1CC2CCCCC2[C@H]1C(=O)N[C@@H](CN)C(=O)N1Cc2ccccc2C[C@H]1C(=O)N1CC2CCCCC2[C@H]1C(=O)N[C@@H](CN)C(=O)N[C@@H](CN)C(=O)N[C@@H](CN)C(=O)N[C@@H](CN)C(N)=O (some centres not stated) (H-[Dap]L[Tic][Pro(3ξ,4ξ-(CH2)4)][Dap][Tic][Pro(3ξ,4ξ-(CH2)4)]F[Tic][Pro(3ξ,4ξ-(CH2)4)][Dap][Tic][Pro(3ξ,4ξ-(CH2)4)]F[Tic][Pro(3ξ,4ξ-(CH2)4)][Dap][Tic][Pro(3ξ,4ξ-(CH2)4)][Dap][Dap][Dap][Dap]-NH2) | – | 100 µg/mL (≈ 33.6 µM) | 100 µg/mL (≈ 33.6 µM) | – | – | – | 100 µg/mL (≈ 33.6 µM) | – | 25 µg/mL (≈ 8.4 µM) | 100 µg/mL (≈ 33.6 µM) | 50 µg/mL (≈ 16.8 µM)
100 µg/mL (≈ 31.2 µM) | 100 µg/mL (≈ 31.2 µM) | 100 µg/mL (≈ 31.2 µM) | 12.5 µg/mL (≈ 3.91 µM) | 50 µg/mL (≈ 15.6 µM) | 12.5 µg/mL (≈ 3.91 µM) | CC(C)C[C@H](NC(=O)[C@@H](N)CCCN)C(=O)N1Cc2ccccc2C[C@H]1C(=O)N1CC2CCCCC2[C@H]1C(=O)N[C@@H](CCCN)C(=O)N1Cc2ccccc2C[C@H]1C(=O)N1CC2CCCCC2[C@H]1C(=O)N[C@@H](Cc1ccccc1)C(=O)N1Cc2ccccc2C[C@H]1C(=O)N1CC2CCCCC2[C@H]1C(=O)N[C@@H](CCCN)C(=O)N1Cc2ccccc2C[C@H]1C(=O)N1CC2CCCCC2[C@H]1C(=O)N[C@@H](Cc1ccccc1)C(=O)N1Cc2ccccc2C[C@H]1C(=O)N1CC2CCCCC2[C@H]1C(=O)N[C@@H](CCCN)C(=O)N1Cc2ccccc2C[C@H]1C(=O)N1CC2CCCCC2[C@H]1C(=O)N[C@@H](CCCN)C(=O)N[C@@H](CCCN)C(=O)N[C@@H](CCCN)C(=O)N[C@@H](CCCN)C(N)=O (some centres not stated) (H-[Orn]L[Tic][Pro(3ξ,4ξ-(CH2)4)][Orn][Tic][Pro(3ξ,4ξ-(CH2)4)]F[Tic][Pro(3ξ,4ξ-(CH2)4)][Orn][Tic][Pro(3ξ,4ξ-(CH2)4)]F[Tic][Pro(3ξ,4ξ-(CH2)4)][Orn][Tic][Pro(3ξ,4ξ-(CH2)4)][Orn][Orn][Orn][Orn]-NH2) | – | > 100 µg/mL | > 100 µg/mL | – | – | – | > 100 µg/mL | – | 50 µg/mL (≈ 15.6 µM) | 100 µg/mL (≈ 31.2 µM) | 100 µg/mL (≈ 31.2 µM)

SMILES | MIC (Klebsiella pneumoniae) | MIC (Klebsiella aerogenes) | MIC (Pseudomonas aeruginosa) | MIC (Enterococcus faecium) | MIC (Staphylococcus aureus [6]) | MIC (Acinetobacter baumannii) | Activity (NHDF [1]) | MBC (Klebsiella pneumoniae) | MBC (Klebsiella aerogenes) | Activity (NHDF [2]) | Activity (NHDF [3]) | Activity (NHDF [4]) | MBC (Pseudomonas aeruginosa) | MIC (Staphylococcus aureus [5]) | MBC (Enterococcus faecium) | MBC (Staphylococcus aureus [6]) | MBC (Acinetobacter baumannii)
CC(=O)NCC(=O)N[C@@H](Cc1ccccc1)C(=O)N1Cc2ccccc2C[C@H]1C(=O)N1CC2CCCCC2[C@H]1C(=O)NCC(=O)N[C@@H](CCN)C(=O)N1Cc2ccccc2C[C@H]1C(=O)N1CC2CCCCC2[C@H]1C(=O)NCC(=O)N[C@@H](Cc1ccccc1)C(=O)N1Cc2ccccc2C[C@H]1C(=O)N1CC2CCCCC2[C@H]1C(=O)NCC(=O)N[C@@H](CCN)C(=O)N1Cc2ccccc2C[C@H]1C(=O)N[C@@H](CCN)C(=O)N[C@@H](CCN)C(=O)N[C@@H](CCN)C(=O)N[C@@H](CCN)C(N)=O (some centres not stated) (Ac-GF[Tic][Pro(3ξ,4ξ-(CH2)4)]G[Dab][Tic][Pro(3ξ,4ξ-(CH2)4)]GF[Tic][Pro(3ξ,4ξ-(CH2)4)]G[Dab][Tic][Dab][Dab][Dab][Dab]-NH2) | 12.5 µg/mL (≈ 5.5 µM) | 25 µg/mL (≈ 11 µM) | 12.5 µg/mL (≈ 5.5 µM) | 6.25 µg/mL (≈ 2.75 µM) | 50 µg/mL (≈ 22 µM) | 6.25 µg/mL (≈ 2.75 µM) | Non-toxic | 12.5 µg/mL (≈ 5.5 µM) | 25 µg/mL (≈ 11 µM) | Non-toxic | Toxic | Toxic | 25 µg/mL (≈ 11 µM) | 25 µg/mL (≈ 11 µM) | 50 µg/mL (≈ 22 µM) | 50 µg/mL (≈ 22 µM) | 12.5 µg/mL (≈ 5.5 µM)
